Reference: patent US20190152946A1, “Novel Compounds” (GlaxoSmithKline Intellectual Property Development Limited, priority 2016, published 2019)

Experiments:
Type in all cases: cell-based
IRAK3 = target: T1, IRAK3 (Homo sapiens, UniProt Q9Y616); experiment: Expression proteomics in THP-1 cells, IRAK3 level; details: IRAK3 protein log2 fold change, 24 h, 1.0 μM
T1 construct: endogenous in cells; host or cells: THP-1
T1 sequence (Q9Y616 1-596): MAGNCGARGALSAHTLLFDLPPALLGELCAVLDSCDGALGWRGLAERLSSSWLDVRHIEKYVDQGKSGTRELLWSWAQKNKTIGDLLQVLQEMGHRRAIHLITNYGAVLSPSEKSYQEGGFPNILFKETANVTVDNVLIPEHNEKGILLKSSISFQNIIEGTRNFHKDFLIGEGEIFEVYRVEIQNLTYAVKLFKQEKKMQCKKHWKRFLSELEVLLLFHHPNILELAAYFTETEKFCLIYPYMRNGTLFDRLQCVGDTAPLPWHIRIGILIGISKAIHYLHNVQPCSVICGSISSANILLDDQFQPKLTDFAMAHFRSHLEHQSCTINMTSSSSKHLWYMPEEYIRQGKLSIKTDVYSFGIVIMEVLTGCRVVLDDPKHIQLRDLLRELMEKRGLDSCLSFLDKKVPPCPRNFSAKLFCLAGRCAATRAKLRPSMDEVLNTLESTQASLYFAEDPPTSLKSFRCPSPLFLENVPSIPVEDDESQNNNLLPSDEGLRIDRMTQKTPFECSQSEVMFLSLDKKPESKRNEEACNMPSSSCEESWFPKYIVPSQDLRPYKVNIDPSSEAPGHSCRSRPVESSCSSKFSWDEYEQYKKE
Procedure: (§1) THP-1 cells were seeded at a concentration of 3×10^6 cells in T175 flasks with 60 mL growth medium (RPM11640+10% FBS). […] of a 10× compound solution prepared in growth medium (DMSO), IAP PROTAC) was added and the cells were treated for the indicated time points (6 or 24 h) at 37° C., 5% CO2. For harvesting the cells were collected into falcon tubes on ice, centrifuged and washed twice in cold PBS (Life technologies). After the last washing step the supernatant was removed and the pellets were snap-frozen in liquid N2 and stored at −80° C. and lysed in 2% SDS for 3 min at 95° C. in a thermomixer (Thermo Fisher Scientific), followed by digestion of DNA with Benzonase at 37° C. for 1.5 h. Lysate was cleared by centrifugation an protein concentration in supernatant was determined by BCA assay.
(§2) Leukemia 25, 89-100 (2011).
(§3) Samples were dried in vacuo and resuspended in 0.05% trifluoroacetic acid in water. […]
(§4) Reporter ion intensities were read from raw data and multiplied with ion accumulation times (the unit is milliseconds) so as to yield a measure proportional to the number of ions;
(§5) Nat Biotech 29, 255-265 (2011). this measure is referred to as ion area Savitski, M. M. et al. Delayed Fragmentation and Optimized Isolation Width Settings for Improvement of Protein Identification and Accuracy of Isobaric Mass Tag Quantification on Orbitrap-Type Mass Spectrometers. […]

MAPK9 = target: T2, MAPK9 (Homo sapiens, UniProt P45984); experiment: Expression proteomics in THP-1 cells, MAPK9 level; details: MAPK9 protein log2 fold change, 24 h, 1.0 μM
T2 construct: endogenous in cells; host or cells: THP-1
Procedure: as §1, §2, §3, §4, §5

TEC = target: T3, TEC (Homo sapiens, UniProt P42680); experiment: Expression proteomics in THP-1 cells, TEC level; details: TEC protein log2 fold change, 24 h, 1.0 μM
T3 construct: endogenous in cells; host or cells: THP-1
T3 sequence (P42680 1-631): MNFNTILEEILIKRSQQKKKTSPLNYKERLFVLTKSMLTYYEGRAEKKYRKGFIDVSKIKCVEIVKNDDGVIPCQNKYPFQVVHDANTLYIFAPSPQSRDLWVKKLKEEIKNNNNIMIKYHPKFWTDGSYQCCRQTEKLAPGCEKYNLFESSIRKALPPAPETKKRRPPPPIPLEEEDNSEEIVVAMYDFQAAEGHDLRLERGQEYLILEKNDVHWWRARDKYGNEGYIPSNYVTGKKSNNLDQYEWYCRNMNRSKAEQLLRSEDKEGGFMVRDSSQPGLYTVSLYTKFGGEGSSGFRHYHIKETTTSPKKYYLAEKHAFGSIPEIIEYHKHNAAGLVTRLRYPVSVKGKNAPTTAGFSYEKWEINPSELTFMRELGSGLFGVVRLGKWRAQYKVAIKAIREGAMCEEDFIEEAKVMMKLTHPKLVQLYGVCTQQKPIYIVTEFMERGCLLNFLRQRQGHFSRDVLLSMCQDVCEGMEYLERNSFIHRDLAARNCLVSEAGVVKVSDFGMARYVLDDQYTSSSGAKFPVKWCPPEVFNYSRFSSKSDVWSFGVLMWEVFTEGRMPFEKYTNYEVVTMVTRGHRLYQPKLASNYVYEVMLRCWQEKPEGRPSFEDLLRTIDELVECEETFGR
Procedure: as §1, §2, §3, §4, §5

T2 sequence (P45984 whole entry): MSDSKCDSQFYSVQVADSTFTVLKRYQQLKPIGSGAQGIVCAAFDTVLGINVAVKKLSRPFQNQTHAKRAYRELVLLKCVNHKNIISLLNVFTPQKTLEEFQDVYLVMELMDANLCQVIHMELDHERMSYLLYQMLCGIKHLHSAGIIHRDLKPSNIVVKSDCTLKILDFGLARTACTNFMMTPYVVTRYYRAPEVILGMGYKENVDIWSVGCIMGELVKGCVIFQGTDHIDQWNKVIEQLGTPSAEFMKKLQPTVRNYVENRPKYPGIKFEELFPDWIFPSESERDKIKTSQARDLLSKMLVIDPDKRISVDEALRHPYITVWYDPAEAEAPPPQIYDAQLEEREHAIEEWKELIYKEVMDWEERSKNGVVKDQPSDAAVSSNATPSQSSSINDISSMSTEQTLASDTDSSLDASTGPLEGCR

CNC(=O)c1ccccc1Nc1nc(Nc2ccc(N3CCN(CCOCCOCCOCCOc4ccc5c(c4)CN(C(=O)[C@@H](NC(=O)[C@H](C)NC)C(C)(C)C)[C@H](C(=O)N[C@@H]4CCCc6ccccc64)C5)CC3)cc2)ncc1Cl [IAP, (S)-7-(2-(2-(2-(2-(4-(4-((5-Chloro-4-((2-(methylcarbamoyl)phenyl)amino)pyrimidin-2-yl)amino)phenyl)piperazin-1-yl)ethoxy)ethoxy)ethoxy)ethoxy)-2-((S)-3,3-dimethyl-2-((S)-2-(methylamino)propanamido)butanoyl)-N-((R)-1,2,3,4-tetrahydronaphthalen-1-yl)-1,2,3,4-tetrahydroisoquinoline-3-carboxamide]
log2fc_IAP_24 h_1.0 μM_n1 (IRAK3; replicate n1): −2.28
log2fc_IAP_24 h_1.0 μM_n2 (IRAK3; replicate n2): −2.47
log2fc_IAP_24 h_1.0 μM_n1 (MAPK9; replicate n1): −1.22
log2fc_IAP_24 h_1.0 μM_n2 (MAPK9; replicate n2): −1.31
log2fc_IAP_24 h_1.0 μM_n1 (TEC; replicate n1): −1.79
log2fc_IAP_24 h_1.0 μM_n2 (TEC; replicate n2): −2.04
